# According to ChEMBL document CHEMBL1131870, “The inhibition of human cytomegalovirus (hCMV) protease by hydroxylamine derivatives” (Bioorg Med Chem Lett, 1999):
# Molecular target: T1, Capsid scaffolding protein (Human cytomegalovirus (strain AD169) (HHV-5) (Human herpesvirus 5), UniProt P16753)
# T1 sequence (P16753 whole entry): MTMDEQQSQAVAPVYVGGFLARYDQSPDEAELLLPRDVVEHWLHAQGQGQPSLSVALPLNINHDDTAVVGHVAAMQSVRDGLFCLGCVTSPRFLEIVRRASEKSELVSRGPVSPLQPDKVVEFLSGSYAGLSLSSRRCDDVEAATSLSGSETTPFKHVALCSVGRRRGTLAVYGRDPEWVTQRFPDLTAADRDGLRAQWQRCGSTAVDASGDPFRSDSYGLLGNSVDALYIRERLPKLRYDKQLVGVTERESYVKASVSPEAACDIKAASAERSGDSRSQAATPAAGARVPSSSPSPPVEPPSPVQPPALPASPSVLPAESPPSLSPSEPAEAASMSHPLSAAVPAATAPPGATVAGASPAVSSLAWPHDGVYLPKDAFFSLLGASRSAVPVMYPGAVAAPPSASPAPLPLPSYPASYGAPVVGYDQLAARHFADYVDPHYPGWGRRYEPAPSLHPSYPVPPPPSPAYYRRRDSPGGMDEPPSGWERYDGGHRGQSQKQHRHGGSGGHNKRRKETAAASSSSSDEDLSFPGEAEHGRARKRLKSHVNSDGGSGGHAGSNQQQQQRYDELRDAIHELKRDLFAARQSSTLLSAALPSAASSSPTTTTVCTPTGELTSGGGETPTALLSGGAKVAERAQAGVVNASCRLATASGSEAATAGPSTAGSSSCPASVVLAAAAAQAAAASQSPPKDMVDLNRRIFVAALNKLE
# Assay: Inhibitory activity against Human Cytomegalovirus (hCMV) protease
# Set-up: species or system Human betaherpesvirus 5
row,SMILES,IC50 [nM]
1,Cc1ccc(C(=O)c2cccc(NO)c2)cc1,3700
2,Cc1csc2nc(Cc3cccc(NC(=O)c4ccccc4)c3)oc(=O)c12,1500
3,Cc1csc2nc(Cc3ccc(C(=O)c4cccc(/N=[N+](\[O-])c5cccc(C(=O)c6ccc(Cc7nc8scc(C)c8c(=O)o7)cc6)c5)c4)cc3)oc(=O)c12,> 33000
4,Cc1csc2nc(Cc3ccc(C(=O)c4cccc(CO)c4)cc3)oc(=O)c12,1100
5,Cc1csc2nc(Cc3ccc(C(=O)c4cccc(NO)c4)cc3)[nH]c(=O)c12,2000
6,Cc1csc2nc(Cc3ccc(C(=O)c4cccc(N=O)c4)cc3)oc(=O)c12,55
7,Cc1csc2nc(Cc3cccc(NC(=O)c4cccc(NN)c4)c3)oc(=O)c12,3800
8,Cc1csc2nc(Cc3cccc(NC(=O)c4cccc(NO)c4)c3)oc(=O)c12,45
9,CONc1cccc(C(=O)Nc2cccc(Cc3nc4scc(C)c4c(=O)o3)c2)c1,2200
10,Cc1csc2nc(Cc3ccc(C(=O)c4ccccc4)cc3)oc(=O)c12,800
11,ONc1ccccc1,9000
12,NO [HYDROXYLAMMONIUM CHLORIDE],> 33000
13,Cc1csc2nc(Cc3cccc(NC(=O)c4ccc(NO)cc4)c3)oc(=O)c12,61
14,CC(=O)ON(C(C)=O)c1cccc(C(=O)c2ccc(Cc3nc4scc(C)c4c(=O)o3)cc2)c1,1400
15,Cc1csc2nc(Cc3ccc(C(=O)c4ccc(CO)cc4)cc3)oc(=O)c12,940
16,Cc1csc2nc(Cc3ccc(C(=O)c4cccc([N+](=O)[O-])c4)cc3)oc(=O)c12,3500
17,Cc1csc2nc(Cc3ccc(C(=O)c4ccc(NO)cc4)cc3)oc(=O)c12,14
18,CC(=O)c1cccc(NO)c1,11000
19,Cc1csc2nc(Cc3ccc(C(=O)c4cccc(N)c4)cc3)oc(=O)c12,1000
20,Cc1csc2nc(Cc3ccc(C(=O)c4cccc(NO)c4)cc3)oc(=O)c12,19
21,CC(=O)N(O)c1cccc(C(=O)c2ccc(Cc3nc4scc(C)c4c(=O)o3)cc2)c1,1100
22,Cc1csc2nc(Cc3ccc(C(=O)c4ccccc4)cc3)[nH]c(=O)c12,> 33000
23,Cc1csc2nc(Cc3cccc(NC(=O)c4ccc(NN)cc4)c3)oc(=O)c12,2400
